Structures can show the parent of a compound that is named as a salt. Where two headings read alike, the source gives them in different places. Blank lines part the entries; values can stand above or below the compound they belong to.
Columns and labels:
[1] = target: CDK2/Cyclin A (Homo sapiens, UniProt P24941); assay: Inhibition of CDK2/Cyclin A Retinoblastoma Kinase Activity; format: biochemical; details: for Ki: apparent Ki, CDK2/proteolyzed cyclin A, Rb fragment substrate, 25 μM ATP; for CDK2 % Inhibition At 0.03 μM: Table 2
Method in brief: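 Percent inhibition is calculated against DMSO-only wells after subtracting no-enzyme background. The enzyme is human CDK2 complexed with proteolyzed cyclin A, used at 10 nM or 19 nM on an Rb fragment with 25 μM [32/33P]ATP, at pH 7.4 and 30° C.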

[2] = target: human CDK4 and genetically truncated (1-264) cyclin D3 (Homo sapiens, UniProt P11802); assay: Inhibition of CDK4/Cyclin D Retinoblastoma Kinase Activity; format: biochemical; details: for Ki: apparent Ki, CDK4/truncated cyclin D3, Rb fragment substrate, 25 μM ATP
Chain of human CDK4 and genetically truncated (1-264) cyclin D3 (P11802 whole entry, the tested form may be a part): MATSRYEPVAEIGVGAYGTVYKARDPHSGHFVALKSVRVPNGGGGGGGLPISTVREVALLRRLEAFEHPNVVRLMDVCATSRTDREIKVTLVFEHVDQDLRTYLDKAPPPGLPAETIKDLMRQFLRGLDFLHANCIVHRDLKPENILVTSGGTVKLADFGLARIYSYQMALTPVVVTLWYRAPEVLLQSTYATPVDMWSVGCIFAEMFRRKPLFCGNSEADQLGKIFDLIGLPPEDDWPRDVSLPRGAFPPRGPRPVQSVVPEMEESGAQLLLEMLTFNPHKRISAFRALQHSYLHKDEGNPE
Chain of human CDK4 and genetically truncated (1-264) cyclin D3 (P30281 1-264 partner): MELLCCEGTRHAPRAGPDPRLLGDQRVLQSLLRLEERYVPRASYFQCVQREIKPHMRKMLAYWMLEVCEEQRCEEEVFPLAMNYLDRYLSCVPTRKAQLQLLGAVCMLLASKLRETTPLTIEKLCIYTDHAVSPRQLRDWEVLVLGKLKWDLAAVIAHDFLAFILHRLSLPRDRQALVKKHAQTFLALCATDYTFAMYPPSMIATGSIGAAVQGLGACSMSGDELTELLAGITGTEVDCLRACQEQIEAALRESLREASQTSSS
Protocol: Cyclin-dependent kinase activity was measured by quantifying the enzyme-catalyzed, time-dependent incorporation of radioactive phosphate from [^32P]ATP or [^33P]ATP into a protein substrate. Unless noted otherwise, assays were performed in 96-well plates in a total volume of 50 μL, in the presence of 10 mM HEPES (N-[2-hydroxyethyl]piperazine-N′-[2-ethanesulfonic acid]) (pH 7.4), 10 mM MgCl2, 25 μM adenosine triphosphate (ATP), 1 mg/mL ovalbumin, 5 μg/mL leupeptin, 1 mM dithiothreitol, 10 mM β-glycerophosphate, 0.1 mM sodium vanadate, 1 mM sodium fluoride, 2.5 mM ethylene glycol-bis(β-aminoethyl ether)-N,N,N′N′-tetraacetic acid (EGTA), 2% (v/v) dimethylsulfoxide, and 0.03-0.4 μCi [^32/33P]ATP per reaction. Reactions were initiated with enzyme, incubated at 30° C., and terminated after 20 minutes by the addition of ethylenediaminetetraacetic acid (EDTA) to 250 mM. The phosphorylated substrate was then captured on a nitrocellulose or phosphocellulose membrane using a 96-well filtration manifold, and unincorporated radioactivity was removed by repeated washing with 0.85% phosphoric acid. Radioactivity was quantified by exposing the dried membranes to a phosphorimager.
Inhibition was measured relative to control wells that contained all reaction components including 2% (v/v) DMSO but no compound, after subtraction of background radioactivity measured in the absence of enzyme. Apparent Ki values of discrete compounds were measured by assaying enzyme activity in the presence of different inhibitor compound concentrations and subtracting the background radioactivity measured in the absence of enzyme. The kinetic parameters (kcat, Km for ATP) were measured for each enzyme under the usual assay conditions by determining the dependence of initial rates on ATP concentration. Inhibition data were fit to an equation for competitive inhibition using Kaleidagraph (Synergy Software), or were fit to an equation for competitive tight-binding inhibition using the software KineTic (BioKin, Ltd.).
Inhibition of CDK4/Cyclin D Retinoblastoma Kinase Activity:
A complex of human CDK4 and genetically truncated (1-264) cyclin D3 was purified using traditional biochemical chromatographic techniques from insect cells that had been co-infected with the corresponding baculovirus expression vectors (see e.g., Meijer and Kim, “Chemical Inhibitors of Cyclin-Dependent Kinases,” Methods in Enzymol,. vol. 283 (1997), pp. 113-128.). The enzyme complex (5 nM) was assayed with 0.3-0.5 μg of purified recombinant retinoblastoma protein fragment (Rb) as a substrate. The engineered Rb fragment (residues 386-928 of the native retinoblastoma protein; 62.3 kDa) contains the majority of the phosphorylation sites found in the native 106-kDa protein, as well as a tag of six histidine residues for ease of purification. Phosphorylated Rb substrate was captured by microfiltration on a nitrocellulose membrane and quantified using a phosphorimager as described above. For measurement of tight-binding inhibitors, the assay duration was extended to 60 minutes, during which the time-dependence of product formation was linear and initial rate conditions were met.

[3] = test system: HCT-116 cell line; assay: Inhibition of cell growth, tetrazolium salt (MTT) assay; format: cell-based; details: for IC50: Homo sapiens, HCT-116, 120 h, MTT, three to five days, read-out: HCT-116 IC50; for HCT-116 % Inhibition at 0.25 μM: 0.25 μM compound
Method in brief: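 McCoy's 5A cultures; 4 h pre-incubation; compound dilutions in 0.5% v/v DMSO; 3–5 d, 37° C, 5% CO2; MTT 0.2 mg/mL final, 4 h; formazan dissolved in DMSO, A540; vs 0.5% DMSO vehicle.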

[4] = 0.1 μM compound, HCT-116, Table 4

CDK2 % Inhibition at 0.03 μM ([1]; at 0.03 μM): 45%
CDK4 % Inhibition at 0.03 μM ([2]; at 0.03 μM): 67%
SMILES: COc1cc(C(=O)N2CCC(Nc3nc(N)c(C(=O)c4c(F)cccc4F)s3)CC2)ccc1C [Example R155]
HCT-116 % Inhibition at 0.1 μM ([3]; HCT-116 cells, at 0.1 μM): 0%
HCT-116 5 Inhibition at 0.25 μM ([3]; HCT-116 cells): 67

CDK2 % Inhibition At 0.03 μM ([1]; 0.03 μM compound): 30%
CDK4 % Inhibition at 0.03 μM ([2]; 0.03 μM compound, Table 2): −3%
SMILES: CCCNC(=O)N1CCC(Nc2nc(N)c(C(=O)c3c(F)cccc3F)s2)CC1 [Example O33]
HCT-116 % Inhibition at 0.25 μM ([3]; HCT-116, Table 2): 31%

CDK2 % Inhibition at 0.03 μM ([1]; 0.03 μM compound, Table 4): 37%
CDK4 % Inhibition at 0.03 μM ([2]; 0.03 μM compound, Table 4): 67%
SMILES: N#Cc1ccc(C(=O)N2CCC(Nc3nc(N)c(C(=O)c4c(F)cccc4F)s3)CC2)cc1 [Example Q60]
HCT-116 % Inhibition at 0.1 μM [3, 4]: 0%
HCT-116 % Inhibition at 0.25 μM ([3]; HCT-116, Table 4): 37%

CDK2 % Inhibition at 0.03 μM ([1]; 0.03 μM compound, Table 4): 16%
CDK4 % Inhibition at 0.03 μM ([2]; 0.03 μM compound, Table 4): 45%
SMILES: CCCCc1ccc(C(=O)N2CCC(Nc3nc(N)c(C(=O)c4c(F)cccc4F)s3)CC2)cc1 [Example Q36]
HCT-116 % Inhibition at 0.1 μM [3, 4]: 0.49%
HCT-116 % Inhibition at 0.25 μM ([3]; HCT-116, Table 4): 31%

CDK2 % Inhibition at 0.03 μM ([1]; at 0.03 μM): 20%
CDK4 % Inhibition at 0.03 μM ([2]; at 0.03 μM): 49%
SMILES: Cc1nn(-c2ccccc2)nc1C(=O)N1CCC(Nc2nc(N)c(C(=O)c3c(F)cccc3F)s2)CC1 [Example R24]
HCT-116 % Inhibition at 0.1 μM ([3]; HCT-116 cells, at 0.1 μM): 5%
HCT-116 5 Inhibition at 0.25 μM ([3]; HCT-116 cells): 39

Continued, compound first:

SMILES: Nc1nc(NC2CCN(S(=O)(=O)c3ccc(CCNc4ccccc4O)nc3)CC2)sc1C(=O)c1c(F)cccc1F [Example N1, [4-Amino-2-(1-{6-[2-(2-hydroxy-phenylamino)-ethyl]-pyridine-3-sulfonyl}-piperidin-4-ylamino)-thiazol-5-yl]-(2,6-difluoro-phenyl)-methanone Trifluoroacetic Acid Salt.]
Ki [1]: 0.28 nM
Ki [2]: 0.49 nM
IC50 ([3]; first HCT-116 column (c4)): 860 nM
IC50 ([3]; second HCT-116 column (c5)): 1600 nM

SMILES: Nc1nc(NC2CCN(S(=O)(=O)CCN(CC3CC3)CC3CC3)CC2)sc1C(=O)c1c(F)cccc1F [Example K54, (4-Amino-2-{1-[2-(bis-cyclopropylmethyl-amino)-ethanesulfonyl]-piperidin-4-ylamino}-thiazol-5-yl)-(2,6-difluoro-phenyl)-methanone]
Ki [1]: 5 nM
Ki [2]: 1.3 nM
IC50 ([3]; first HCT-116 column (c4)): 280 nM
IC50 ([3]; second HCT-116 column (c5)): 800 nM

SMILES: Nc1nc(NC2CCN(C(=O)Nc3cccc(Cl)c3)CC2)sc1C(=O)c1c(F)cccc1F [Example O14]
CDK2 % Inhibition At 0.03 μM ([1]; 0.03 μM compound): 36%
CDK4 % Inhibition at 0.03 μM ([2]; 0.03 μM compound, Table 2): 9%
HCT-116 % Inhibition at 0.25 μM ([3]; HCT-116, Table 2): 23%

SMILES: C[Si](C)(C)NC(=O)N1CCC(Nc2nc(N)c(C(=O)c3c(F)cccc3F)s2)CC1 [Example O2]
CDK2 % Inhibition At 0.03 μM ([1]; 0.03 μM compound): 34%
CDK4 % Inhibition at 0.03 μM ([2]; 0.03 μM compound, Table 2): 6%
HCT-116 % Inhibition at 0.25 μM ([3]; HCT-116, Table 2): 0%

SMILES: Nc1nc(NC2CCN(S(=O)(=O)CCCN3CCSCC3)CC2)sc1C(=O)c1c(F)cccc1F [Example K13, 1-(4-Amino-2-{1-[3-(thiomorpholin-4-yl)propane-1-sulfonyl]-piperidin-4-ylamino}-thiazol-5-yl)-1-(2,6-difluoro-phenyl)-methanone.]
Ki [1]: 3.9 nM
Ki [2]: 2.5 nM
IC50 ([3]; first HCT-116 column (c4)): 390 nM
IC50 ([3]; second HCT-116 column (c5)): 1300 nM

SMILES: CN(C)CC#Cc1ccc(S(=O)(=O)N2CCC(Nc3nc(N)c(C(=O)c4c(F)cccc4F)s3)CC2)cn1 [Example I11, 1-(4-Amino-2-{1-[6-(3-dimethylamino-prop-1-ynyl)-pyridine-3-sulfonyl]-piperidin-4-ylamino}-thiazol-5-yl)-1-(2,6-difluoro-phenyl)-methanone]
Ki [1]: < 0.5 nM
Ki [2]: 0.5 nM
IC50 ([3]; first HCT-116 column (c4)): 16 nM
IC50 ([3]; second HCT-116 column (c5)): 25 nM

From patent publication US20050101595A1, “N-containing cycloalkyl-substituted amino-thiazole derivatives and pharmaceutical compositions for inhibiting cell proliferation and methods for their use” (PFIZER INC., priority 2003, published 2005)
